Assays:
[1] = system: time of hexobarbital induced sleep; assay: Hexobarbital induced sleep in rats intoxicated by carbon tetrachloride; type: in vivo
Protocol: Since the length of barbiturates induced sleep can be considered directly related to the metabolism rate of these drugs by the liver, it seemed appropiate to assess the influence of MR 729 on the time of hexobarbital induced sleep in rats intoxicated by carbon tetrachloride.
MR 729 has been administered by oral route for 4 consecutive days, at different doses; the animals were then treated with CCl4 and, after 48 hours, with hexobarbital.

bronchial secretion = assay: In vivo mucolytic effect, sodium fluorescein method (Mawatari); settings: rat, 250 mg/kg intraperitoneal, 5 minutes before sodium fluorescein, determined after 30 minutes
Protocol: The effect of MR 729 on bronchial secretion has been studied in the rat with the method of sodium fluorescein described by Mawatari (Kagoshima Daigakeu Igakeu Zasshi, 27, 561, 1976).
The product under study has been administered by intraperitoneal route 5 minutes before the solution of sodium fluoroscein, whose amount in the bronchial secretion has been determined after 30 minutes.

[2] = target: T1, angiotensin converting enzyme (ACE) (Homo sapiens, UniProt P12821); assay: In vitro inhibition of plasma ACE in normal human serum (method of Summary et al.); type: biochemical; design: ID50 (ACE inhibition): unit not given here; settings: for ACE activity: control 30; for % Enzymatic activity: control 100
T1 construct: The plasma ACE has been determined by the method of Summary et al; from tissue; host or cells: normal human serum
Protocol: The plasma ACE has been determined by the method of Summary et al. (Clin. Sci. 50, 321, 1976) using histidyl-glycyl-histidine as a substrate.
Tests have been carried out with 20 ml of normal human serum.
A 0.1 M aqueous solution of MR 729 has been used.

[3] = target: T2, rat hepatic glutathione-peroxidase (GSH-P) (Rattus norvegicus, UniProt P04041); assay: In vitro inhibition of glutathione-peroxidase (glutathione/NADPH/GSH-reductase/cumene hydroperoxide system); type: biochemical; settings: concentration 0.025 mM
T2 construct: rat hepatic glutathione-peroxidase (GSH-P); from tissue; host or cells: rat liver
T2 sequence (P04041 1-201): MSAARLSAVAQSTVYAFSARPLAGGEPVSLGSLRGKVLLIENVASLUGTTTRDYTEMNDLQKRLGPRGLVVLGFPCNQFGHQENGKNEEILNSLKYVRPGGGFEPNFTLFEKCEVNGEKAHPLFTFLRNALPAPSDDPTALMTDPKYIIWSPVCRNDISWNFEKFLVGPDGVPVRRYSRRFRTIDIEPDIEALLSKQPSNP
Protocol: On the ground of these considerations and considering the above described pharmacological results, it has been assessed the efficacy of MR 729 in inhibiting in vitro the rat hepatic glutathione-peroxidase (GSH-P).
It has been used the system glutathione/NADPH/GSH-reductase/cumene hydroperoxide. It was shown that MR 729 inhibits of about 63% the GSH-P, at a concentration of 0.025 mM. The administration of MR 729 allows therefore a saving of endogenous glutathione and a consequent decrease of free peroxides. Compound MR 729 can be administered by oral, parenteral, rectal, aerosolic route in various forms. The compositions below are described as an example: […]

liver regeneration = assay: Liver regeneration in partially hepathectomized rats; type: in vivo; settings: treated just after operation, assessed after 4 days
Text: This study aimed to evidence whether MR 729 could affect the liver regeneration in partially hepathectomized rats.
The animals have been treated with the product under study just after their operation; the regeneration degree has been assessed after 4 days.

[4] = system: hepatic damage caused by α-naphtyl-isothiocyanate; assay: Intoxication by α-naphtyl-isothiocyanate; type: in vivo; settings: rat, contemporary oral treatment, 8 days α-naphtyl-isothiocyanate
Text: The hepatic damage caused by 8 days prolonged administration of α-naphtyl-isothiocyanate causes in the rate impairments in respect of cellular proliferation and hypertrophy of periportal spaces.

[5] = system: lipid infiltration experimentally induced by CCl4; assay: Intoxication by CCl4, liver lipids; type: in vivo; settings: 12 hours fasting rats, oral route at different doses 2 hours before CCl4, sacrificed after 20 hours
Protocol: The study has been carried out on 12 hours fasting rats; MR 729 was administered by oral route at different doses 2 hours before carbon tetrachloride. The animals were sacrificed after 20 hours and the liver was removed for the determination of liver lipids.

[6] = Acute toxicity after single intraperitoneal administration; settings: mouse, in vivo, ip, mice, 95% confidence limits 307-478
Text: The toxicity of MR 729 after single administration has been studied in mice, by injecting the product at different doses by the intraperitoneal route.

[7] = system: ethionine-induced hepatic lipidic infiltration; assay: Intoxication by ethionine; type: in vivo; settings: rat, daily oral administration during the 8 days preceding ethionine
Text: Also ethionine administration causes in the rat hepatic damages with respect to hepatocytes, occurring as a massive lipidic infiltration.

[8] = system: pig's lyophilized gastric mucine; assay: In vitro mucolytic effect (method of Scheffner)
Text: It has been followed the method described by Scheffner (Ann. N.Y. Acad. Sci. 106, 298, 1963) using as a substrate pig's lyophilized gastric mucine.

[9] = MR 729 20 μl (0.1 M aqueous solution)
[10] = MR 729 50 μl (0.1 M aqueous solution)
[11] = MR 729 100 μl (0.1 M aqueous solution)

T1 sequence (P12821 30-1232 limits assumed): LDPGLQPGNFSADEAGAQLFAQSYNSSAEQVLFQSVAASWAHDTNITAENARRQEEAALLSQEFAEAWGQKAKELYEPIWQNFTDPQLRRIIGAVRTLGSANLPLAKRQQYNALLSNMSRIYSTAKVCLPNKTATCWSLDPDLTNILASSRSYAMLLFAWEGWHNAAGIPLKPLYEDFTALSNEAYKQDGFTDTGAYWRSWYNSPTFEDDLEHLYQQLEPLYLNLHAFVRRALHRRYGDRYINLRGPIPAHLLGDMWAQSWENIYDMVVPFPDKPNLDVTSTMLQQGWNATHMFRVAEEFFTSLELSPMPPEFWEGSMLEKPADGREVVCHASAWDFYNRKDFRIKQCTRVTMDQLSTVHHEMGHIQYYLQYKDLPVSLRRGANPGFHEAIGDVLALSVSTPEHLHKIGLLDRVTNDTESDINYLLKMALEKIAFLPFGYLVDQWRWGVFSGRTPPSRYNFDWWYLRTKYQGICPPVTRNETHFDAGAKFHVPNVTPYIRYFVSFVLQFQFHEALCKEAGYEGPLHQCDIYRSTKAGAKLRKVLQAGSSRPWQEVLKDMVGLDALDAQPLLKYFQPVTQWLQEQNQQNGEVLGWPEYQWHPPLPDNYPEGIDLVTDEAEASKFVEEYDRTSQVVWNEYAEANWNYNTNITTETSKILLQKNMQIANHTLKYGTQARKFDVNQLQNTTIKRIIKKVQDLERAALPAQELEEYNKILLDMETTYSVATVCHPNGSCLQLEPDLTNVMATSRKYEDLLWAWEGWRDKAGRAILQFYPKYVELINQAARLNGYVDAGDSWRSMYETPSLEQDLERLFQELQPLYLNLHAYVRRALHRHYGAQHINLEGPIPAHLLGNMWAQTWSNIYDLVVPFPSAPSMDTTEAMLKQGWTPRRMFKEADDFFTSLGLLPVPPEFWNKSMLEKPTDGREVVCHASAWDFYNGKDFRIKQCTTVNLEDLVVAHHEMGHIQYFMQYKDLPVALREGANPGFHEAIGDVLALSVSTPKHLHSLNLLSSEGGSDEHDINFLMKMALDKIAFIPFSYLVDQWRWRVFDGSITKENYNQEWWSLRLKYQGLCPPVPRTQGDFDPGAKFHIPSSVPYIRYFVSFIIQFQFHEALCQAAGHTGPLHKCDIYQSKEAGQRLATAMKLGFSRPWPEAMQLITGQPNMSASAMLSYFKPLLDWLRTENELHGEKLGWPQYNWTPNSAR

Compound: CC(S)C(=O)NCC(=O)N1CSCC1C(=O)O (stereo not shown) [MR 729, 3-[N-(2-mercapto-propionyl-amino-acetyl)]-tetrahydro-thiazolyl-4-carboxylic acid]
- Sleeping times ([1]; oral 4 days, at highest doses): practically within normal limits
- Inhibition of CCl4-induced prolongation of hexobarbital sleeping time ([1]; oral route for 4 consecutive days at different doses, then CCl4, hexobarbital after 48 hours): inhibits the remarkable prolongation of sleeping time
- Bronchosecretolytic activity relative to carboxymethylcysteine 500 mg/kg i.p. (bronchial secretion): fivefold higher activity
- ACE activity [2, 9]: 9 nmol/10 min/20 μl
- % Enzymatic activity [2, 9]: 30%
- ACE activity [2, 10]: 7 nmol/10 min/20 μl
- % Enzymatic activity [2, 10]: 23%
- ACE activity [2, 11]: 3 nmol/10 min/20 μl
- % Enzymatic activity [2, 11]: 10%
- ID50 (ACE inhibition) ([2]; in vitro, normal human serum, 0.1 M aqueous solution of MR 729): 60
- inhibition at 25 µM [3]: ~63%
- Effect on liver regeneration (liver regeneration): acts in a positive way on the regeneration process, without however a clear dose-effect relationship
- Histological examination of biliary ducts and parenchyma [4]: structure of biliary ducts in the treated animals was practically unchanged
- Inhibition of hepatic pathology caused by α-naphtyl-isothiocyanate [4]: inhibits the development of such pathology
- Inhibition of liver lipid infiltration induced by CCl4 [5]: able to inhibit, in a dose-dependent way, the lipid infiltration
- LD50 [6]: 395 mg/kg
- Antagonism of ethionine-induced hepatic lipidic infiltration [7]: effective in antagonizing, with a dose-related intensity, the establishment of this pathology
- Decrease of viscosity ([8]; pig gastric mucine, according to the considered dose): 17-35%
- Mucolytic activity higher than equiponderant doses of N-acetyl-S-cysteine ([8]; same experimental conditions, according to the doses): 35-50%

From patent US4447419A, “Thiazole derivative, and pharmaceutical compositions containing it” (Ausonia Farmaceutici s.r.l., priority 1981, dated 1984)
